Data set [1] concerns bovine BCECs co-cultured with rat astrocytes. The experiment in a line: Peptide uptake into endothelial cells and astrocytes by confocal microscopy after fixation (bovine BBB model). It counts as cell-based. Particulars: fixed cells; for peptide uptake in the astrocytes, 3 h: 100 µM peptide applied luminally; for peptide uptake in the astrocytes, 3 h / peptide uptake in the endothelial cells, 3 h: TAMRA fluorescence, confocal microscopy; for peptide uptake in the astrocytes, 15 min / peptide uptake in the endothelial cells, 15 min / peptide uptake in the endothelial cells, 3 h: 100 µM peptide; for peptide uptake in the astrocytes, 15 min / peptide uptake in the endothelial cells, 15 min: confocal microscopy (Figure S3). Here is the method:
[…] TEER was measured at room temperature using an Endohm 12 cup (World Precision Instruments, Sarasota, FL, USA) connected to a Millicell-ERS device (Millipore, Bedford, MA, USA). TEER was measured before application of the peptides and after each experiment. The bovine model had initial TEER values ranging from 771 to 1332 Ω·cm^2, whereas the mouse model had initial TEER values ranging from 136 to 217 Ω·cm^2.
To visualize the TAMRA-peptide taken up by the endothelial cells and astrocytes, the remaining filters (one per batch) from the permeation study using the in vitro bovine BBB model were prepared for confocal microscopy. After removal of the peptide solutions, the cells were fixed with 3% paraformaldehyde in PBS for 15 min at room temperature with horizontal shaking (90 rpm). The cells were washed thrice with PBS prior to permeabilization in 0.1% Triton X-100 in PBS for 5 min and blocking in 2% BSA in PBS for 30 min at room temperature with horizontal shaking (90 rpm). The filter inserts were cut out, divided into smaller pieces, and transferred to a 48-well plate to stain zonula ocludens-1 (ZO-1) in the BCECs and F-actin in the astrocytes. Filter pieces with BCECs facing upwards were incubated with a primary antibody directed against ZO-1 (1:100 in PBS with 2% BSA; Thermo Fischer Scientific, Bedford, MA, USA, no. 617300) for 2 h at room temperature. Subsequently, the filters were washed thrice for 5 min in PBS with 2% BSA prior to 30 min incubation with an Alexa-488-conjugated secondary antibody (1:100 in PBS with 2% BSA; Thermo Fischer Scientific, Bedford, MA, USA, no. A11008). Filter pieces with astrocytes facing upwards were incubated with Alexa-488-conjugated phalloidin (1:133 in PBS with 2% BSA; Thermo Fischer Scientific, Bedford, MA, USA) for 30 min at room temperature and washed thrice for 5 min in PBS with 2% BSA. The filter pieces were mounted on glass slides under coverslips using Immu-Mount™ mounting media and imaged using single wavelength excitation a Zeiss 510 laser-scanning confocal microscope (Carl Zeiss, Jena, Germany).

The test system of data set [2] is bovine BCEC monolayers co-cultured with rat astrocytes. Nature of the data set: Transport, membrane adherence and cell uptake quantified by TAMRA fluorescence (bovine model). The note with it: 3 h, 37 °C, N = 2-3, n = 3; for peptide transported across the barrier (abluminal content): 100 µM peptide luminal, 90 rpm, medium with 10% FBS, abluminal TAMRA fluorescence, compared to TAMRA-NR2B9c; for peptide adhering to the cell surface / peptide taken up by the cells (endothelial cells and astrocytes): 100 µM peptide, TAMRA fluorescence 542/568 nm, mean ± SEM; for peptide adhering to the cell surface: acetic acid buffer pH 3 wash fraction; for peptide taken up by the cells (endothelial cells and astrocytes): lysate fraction. It counts as in vitro ADME. Here is the method: (§1) Transport across bovine or mouse BCEC monolayers co-cultured with rat astrocytes was carried out over 3 h at 37 °C with horizontal shaking (90 rpm). TEER was measured at room temperature using an Endohm 12 cup (World Precision Instruments, Sarasota, FL, USA) connected to a Millicell-ERS device (Millipore, Bedford, MA, USA). TEER was measured before application of the peptides and after each experiment. The bovine model had initial TEER values ranging from 771 to 1332 Ω·cm^2, whereas the mouse model had initial TEER values ranging from 136 to 217 Ω·cm^2.
TAMRA fluorescence was measured using a NovoStar fluorescence plate reader (BMG Labtech, Offenburg, Germany) with excitation/emission set to 542/568 nm. The transported peptide was calculated using standard curves ranging from 31 nM to 2 µM. All peptide standard curves were subjected to 3 h of incubation at 37 °C with horizontal shaking (90 rpm) in differentiation media withdrawn from BCECs co-cultured with rat astrocytes.
Two filters from each BCEC batch were subjected to quantification of the TAMRA-peptide adhering to the BCEC plasma membrane and peptide taken up by the BCECs and astrocytes. […] The peptide solutions were removed from the cells and the filters washed thrice with 37 °C hHBSS. To isolate the peptide fraction adhering to the plasma membrane, the BCECs were placed on ice and incubated with 300 µL ice-cold acetic acid buffer ([…], 1% BSA, pH 3) for 5 min. The acetic acid buffer solution was gently pipetted up and down twice prior to collection of 100 µL samples into a black clear-bottom 96-well plate for analysis. The remaining acetic acid buffer solution was removed from the luminal chamber and the cells washed thrice with ice-cold hHBSS. To isolate the peptide fraction being taken up by the BCECs and astrocytes, the filter inserts were cut out and 150 µL of ice-cold lysis buffer (10 mM Tris-HCl, 0.25 M sucrose, 1 mM EDTA, 1 mM ethylene-bis(oxyethylenenitrilo)tetraacetic acid tetrasodium (EGTA), 2% Tergitol™, Complete® inhibitor tablet) added prior to incubation for 10 min on ice. The cells were homogenized using a pellet pestle (Merck, St. Louis) and subjected to centrifugation at 10,000× g at 4 °C for 10 min. The 100 µL supernatant was transferred into a black clear-bottom 96-well plate. TAMRA fluorescence was measured using a NovoStar fluorescence plate reader (BMG Labtech, Offenburg, Germany) with excitation/emission set to 542/568 nm. The molar amount of membrane-adhered peptide and peptide taken up by the cells was calculated using standard curves freshly prepared in acetic acid buffer and lysis buffer, respectively, in concentrations ranging from 40 nM to 2.5 µM.

Data set [3] has as its system primary mouse BCECs in co-culture with primary rat astrocytes. Nature of the data set: Transport and cellular accumulation (mouse BBB model). It counts as in vitro ADME. The note with it: 100 µM peptide, 3 h, TAMRA fluorescence; for transendothelial permeation of the mouse BBB model compared to TAMRA-NR2B9c: N = 3, n = 3 (Figure S5A); for accumulation in the cell fraction of the mouse BBB model compared to TAMRA-NR2B9c: lysate, N = 3, n = 3 (Figure S5B). Here is the method: Generation of mouse BCEC monolayers in co-culture with rat astrocytes: the capillary fragments were allowed to settle for 2–3 h before changing the media to DMEM containing 10% FBS and pyromycin (4 µg/mL). On day 3, the media was changed to DMEM containing 10% FBS and rat astrocytes seeded on the bottom of collagen and fibronectin coated (both 0.01 mg/mL in PBS) Transwell® plate permeable supports (120,000 cells/1.12 cm^2 support with 0.4 µm pore size). On day 5, the media in the Transwell® plate was changed to Complete Mouse Endothelial Cell Medium (PELOBiotech, Planegg/Martinsried, Germany). The endothelial cells were detached from the flask using trypsin-EDTA. The remaining trypsin-EDTA was removed by centrifugation in DMEM containing 10% FBS at 500× g for 5 min at room temperature. The endothelial cells were re-suspended in Complete Mouse Endothelial Cell Medium and seeded on the apical side of the Transwell® plate permeable supports (100,000 cells/support). On day 8, the medium was changed to differentiation medium. On day 10, the mouse BBB model was ready for use as evident by the measured transendothelial electrical resistance (TEER) values for each filter prior experimental start.
as §1
The withdrawn volume was replaced with media.
Transported peptide was calculated based on fluorescence using the same method as described for peptides applied to the bovine model. Subsequently, the peptide solutions were removed from the cells and the filters washed thrice with 4 °C hHBSS. To isolate the peptides accumulated in the cell fraction, the filter inserts were cut out and 250 µL of ice-cold lysis buffer added. The peptides were retrieved and quantified as described for the cell uptake fraction obtained following the permeation study using the bovine model.

The structures appear in SMILES notation. Peptide text beside a SMILES is read from it. * marks the point of attachment. 5TAMRA = CN(C)c1ccc2c(c1)Oc1cc(N(C)C)ccc1C21OC(=O)c2cc(C(=O)*)ccc21

Take `CN(C)c1ccc2c(c1)Oc1cc(N(C)C)ccc1C21OC(=O)c2cc(C(=O)N[C@@H](Cc3ccc(O)cc3)C(=O)NCC(=O)N[C@@H](CCCNC(=N)N)C(=O)N[C@@H](CCCCN)C(=O)N[C@@H](CCCCN)C(=O)N[C@@H](CCCNC(=N)N)C(=O)N[C@@H](CCCNC(=N)N)C(=O)N[C@@H](CCC(N)=O)C(=O)N[C@@H](CCCNC(=N)N)C(=O)N[C@@H](CCCNC(=N)N)C(=O)N[C@@H](CCCNC(=N)N)C(=O)O)ccc21` [TAMRA-Tat]: in data set [1], the “peptide uptake in the astrocytes, 3 h” value is given as “observed in both cell types”; the “peptide uptake in the astrocytes, 15 min” value was “uptake”; the “peptide uptake in the endothelial cells, 15 min” value is “uptake”; the “peptide uptake in the endothelial cells, 3 h” value is reported as “observed in both cell types”. Besides, in data set [2], the “peptide transported across the barrier (abluminal content)” value (“peptide transported across the barrier” for short) is on record as “to a greater extent than TAMRA-NR2B9c”; the “peptide adhering to the cell surface” value is reported as “Significantly larger amounts”; the “peptide taken up by the cells (endothelial cells and astrocytes)” value (shortened to “peptide taken up by the cells”) is on record as “Significantly larger amounts”. In data set [3], the “transendothelial permeation of the mouse BBB model compared to TAMRA-NR2B9c” value is on record as “similar” and the “accumulation in the cell fraction of the mouse BBB model compared to TAMRA-NR2B9c” value is listed as “to a greater extent than TAMRA-NR2B9c”.

Turning to `CC[C@H](C)[C@H](NC(=O)CCOCCOCCN(CCOCCOCCC(=O)N[C@H](C(=O)N[C@@H](CCC(=O)O)C(=O)N[C@H](C(=O)N[C@@H](CC(=O)O)C(=O)N[C@H](C(=O)O)C(C)C)[C@@H](C)O)[C@@H](C)CC)C(=O)[C@H](CCCNC(=N)N)NC(=O)[C@H](CCCNC(=N)N)NC(=O)[C@H](CCCNC(=N)N)NC(=O)[C@H](CCC(N)=O)NC(=O)[C@H](CCCNC(=N)N)NC(=O)[C@H](CCCNC(=N)N)NC(=O)[C@H](CCCCN)NC(=O)[C@H](CCCCN)NC(=O)[C@H](CCCNC(=N)N)NC(=O)CNC(=O)[C@H](Cc1ccc(O)cc1)NC(=O)c1ccc2c(c1)C(=O)OC21c2ccc(N(C)C)cc2Oc2cc(N(C)C)ccc21)C(=O)N[C@@H](CCC(=O)O)C(=O)N[C@H](C(=O)N[C@@H](CC(=O)O)C(=O)N[C@H](C(=O)O)C(C)C)[C@@H](C)O` [TAMRA-Tat-N-dimer], in data set [1], the “peptide uptake in the astrocytes, 3 h” value is on record as “not in the astrocytes”; the “peptide uptake in the astrocytes, 15 min” value is recorded as “not in the astrocytes”; the “peptide uptake in the endothelial cells, 15 min” value is given as “Minor uptake”; the “peptide uptake in the endothelial cells, 3 h” value is given as “low level”. In data set [2], the “peptide transported across the barrier” value is “No significant difference”; the “peptide adhering to the cell surface” value was “Minute amounts”; the “peptide taken up by the cells” value was “Minute amounts”. In data set [3], the “transendothelial permeation of the mouse BBB model compared to TAMRA-NR2B9c” value is “lower”.

Turning to `CC[C@H](C)[C@H](NC(=O)[C@H](CO)NC(=O)[C@H](CO)NC(=O)[C@H](CC(C)C)NC(=O)[C@H](CCCCN)NC(=O)c1ccc2c(c1)C(=O)OC21c2ccc(N(C)C)cc2Oc2cc(N(C)C)ccc21)C(=O)N[C@@H](CCC(=O)O)C(=O)N[C@@H](CO)C(=O)N[C@@H](CC(=O)O)C(=O)N[C@H](C(=O)O)C(C)C` [TAMRA-NR2B9c] (5TAMRA-KLSSIESDV-OH), in data set [1], the “peptide uptake in the astrocytes, 3 h” value is recorded as “not observed” and the “peptide uptake in the endothelial cells, 3 h” value is on record as “not observed”. In data set [2], the “peptide adhering to the cell surface” value is “Minute amounts”; the “peptide taken up by the cells” value is reported as “Minute amounts”.

In the case of `CC[C@H](C)[C@H](NC(=O)[C@H](CO)NC(=O)[C@H](CO)NC(=O)[C@H](CC(C)C)NC(=O)[C@H](CCCCN)NC(=O)[C@H](CCCNC(=N)N)NC(=O)[C@H](CCCNC(=N)N)NC(=O)[C@H](CCCNC(=N)N)NC(=O)[C@H](CCC(N)=O)NC(=O)[C@H](CCCNC(=N)N)NC(=O)[C@H](CCCNC(=N)N)NC(=O)[C@H](CCCCN)NC(=O)[C@H](CCCCN)NC(=O)[C@H](CCCNC(=N)N)NC(=O)CNC(=O)[C@H](Cc1ccc(O)cc1)NC(=O)c1ccc2c(c1)C(=O)OC21c2ccc(N(C)C)cc2Oc2cc(N(C)C)ccc21)C(=O)N[C@@H](CCC(=O)O)C(=O)N[C@@H](CO)C(=O)N[C@@H](CC(=O)O)C(=O)N[C@H](C(=O)O)C(C)C` [TAMRA-Tat-NR2B9c] (5TAMRA-YGRKKRRQRRRKLSSIESDV-OH), in data set [1], the “peptide uptake in the astrocytes, 3 h” value was “observed in both cell types”; the “peptide uptake in the astrocytes, 15 min” value is “uptake”; the “peptide uptake in the endothelial cells, 15 min” value is reported as “uptake”; the “peptide uptake in the endothelial cells, 3 h” value is given as “observed in both cell types”. In data set [2], the “peptide transported across the barrier” value is “to a greater extent than TAMRA-NR2B9c”; the “peptide adhering to the cell surface” value was “Significantly larger amounts”; the “peptide taken up by the cells” value is reported as “Significantly larger amounts”. Also, in data set [3], the “transendothelial permeation of the mouse BBB model compared to TAMRA-NR2B9c” value was “to a greater extent than TAMRA-NR2B9c” and the “accumulation in the cell fraction of the mouse BBB model compared to TAMRA-NR2B9c” value was “to a greater extent than TAMRA-NR2B9c”.

(Values after publication PMC7408072 (Pharmaceutics, 2020).)
